In ChEMBL document CHEMBL1201862, “PubChem BioAssay data set” (2004):
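Following 48 hours of exposure in 96-well plates, responses at five concentrations were used to interpolate endpoints linearly. GI50: concentration for 50% inhibition of growth.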 Active and inactive are the calls of the source. No stated cut-off is given here; in the data, active = GI50 up to about 1.1 µM and inactive = higher.

Tests used:
Test in all cases: growth of human tumour cells (NCI), 48 h
[1] = test system: SK-MEL-28
[2] = test system: K562
[3] = test system: 786-0
[4] = test system: SNB-19
[5] = test system: UACC-62
[6] = test system: HL-60
[7] = test system: DLD-1
[8] = test system: A549
[9] = test system: DU-145
[10] = test system: SF-268
[11] = test system: SF-295
[12] = test system: KM12
[13] = test system: SK-OV-3
[14] = test system: NCI-H522
[15] = test system: OVCAR-4
[16] = test system: NCI-H226
[17] = test system: MDA-N
[18] = test system: PC-3
[19] = test system: T47D
[20] = test system: MCF7

## C=C(CN(C)C)C(=O)c1ccccc1C
[1]
  GI50: 9.89 µM (inactive)
[2]
  GI50: 15.7 µM (inactive)
[3]
  GI50: 16.9 µM (inactive)
[4]
  GI50: > 100 µM (inactive)
[5]
  GI50: 28.2 µM (inactive)
[6]
  GI50: 5.52 µM (inactive)
[7]
  GI50: 20.9 µM (inactive)
[8]
  GI50: > 100 µM (inactive)
[9]
  GI50: > 100 µM (inactive)
[10]
  GI50: 77.1 µM (inactive)
[11]
  GI50: > 100 µM (inactive)
[12]
  GI50: > 100 µM (inactive)
[13]
  GI50: > 100 µM (inactive)
[14]
  GI50: 5.69 µM (inactive)
[15]
  GI50: > 57.9 µM (inactive)
[16]
  GI50: > 100 µM (inactive)

## CC[C@]1(O)C(=O)OCc2c1cc1n(c2=O)Cc2cc3c(N)cccc3nc2-1
[1]
  GI50: > 100 µM (inactive)
[2]
  GI50: > 100 µM (inactive)
[3]
  GI50: > 100 µM (inactive)
[4]
  GI50: > 100 µM (inactive)
[5]
  GI50: > 100 µM (inactive)
[6]
  GI50: > 100 µM (inactive)
[7]
  GI50: > 100 µM (inactive)
[8]
  GI50: > 100 µM (inactive)
[10]
  GI50: > 100 µM (inactive)
[11]
  GI50: > 100 µM (inactive)
[12]
  GI50: > 100 µM (inactive)
[13]
  GI50: > 100 µM (inactive)
[14]
  GI50: > 100 µM (inactive)
[15]
  GI50: > 100 µM (inactive)
[16]
  GI50: > 100 µM (inactive)

## COc1ccc(NC(=O)C(=O)c2c(O)c3ccc(O)cc3oc2=O)c([N+](=O)[O-])c1
[1]
  GI50: > 100 µM (inactive)
[2]
  GI50: > 100 µM (inactive)
[3]
  GI50: > 100 µM (inactive)
[4]
  GI50: > 100 µM (inactive)
[5]
  GI50: > 100 µM (inactive)
[6]
  GI50: > 100 µM (inactive)
[7]
  GI50: > 100 µM (inactive)
[8]
  GI50: > 100 µM (inactive)
[10]
  GI50: > 100 µM (inactive)
[11]
  GI50: > 100 µM (inactive)
[12]
  GI50: > 100 µM (inactive)
[13]
  GI50: > 100 µM (inactive)
[14]
  GI50: > 100 µM (inactive)
[15]
  GI50: > 100 µM (inactive)
[16]
  GI50: > 100 µM (inactive)

## O=C(N/C=C1\C(=O)Oc2ccccc2C1=O)Nc1ccccc1
[1]
  GI50: 87.1 µM (inactive)
[2]
  GI50: > 100 µM (inactive)
[3]
  GI50: 43.3 µM (inactive)
[4]
  GI50: 29 µM (inactive)
[5]
  GI50: 38.5 µM (inactive)
[6]
  GI50: > 100 µM (inactive)
[7]
  GI50: 42.6 µM (inactive)
[8]
  GI50: 53.1 µM (inactive)
[10]
  GI50: 31.8 µM (inactive)
[11]
  GI50: > 100 µM (inactive)
[12]
  GI50: 64 µM (inactive)
[13]
  GI50: 31.6 µM (inactive)
[14]
  GI50: 58.5 µM (inactive)
[15]
  GI50: > 100 µM (inactive)
[16]
  GI50: 23.5 µM (inactive)

## O=C(C(=O)n1ncc(Cl)c(Cl)c1=O)n1ncc(Cl)c(Cl)c1=O
[1]
  GI50: 25.3 µM (inactive)
[2]
  GI50: 20.3 µM (inactive)
[3]
  GI50: 19.5 µM (inactive)
[4]
  GI50: > 100 µM (inactive)
[5]
  GI50: 15.1 µM (inactive)
[6]
  GI50: 5.82 µM (inactive)
[7]
  GI50: 16 µM (inactive)
[8]
  GI50: 96.8 µM (inactive)
[10]
  GI50: 42.4 µM (inactive)
[11]
  GI50: 93.5 µM (inactive)
[12]
  GI50: 27.7 µM (inactive)
[13]
  GI50: > 53.8 µM (inactive)
[14]
  GI50: 10.7 µM (inactive)
[15]
  GI50: 19.6 µM (inactive)
[16]
  GI50: > 100 µM (inactive)

## Cc1ccc([S+](c2ccccc2)c2cc(C)ccc2C)cc1.O=C(OC(C(=O)[O-])C(OC(=O)c1ccccc1)C(=O)O)c1ccccc1 (stereo unspecified)
[1]
  GI50: 17.6 µM (inactive)
[2]
  GI50: 2.53 µM (inactive)
[3]
  GI50: 26.2 µM (inactive)
[4]
  GI50: 4.83 µM (inactive)
[5]
  GI50: 12.2 µM (inactive)
[6]
  GI50: 3.13 µM (inactive)
[7]
  GI50: 14.6 µM (inactive)
[8]
  GI50: 8.87 µM (inactive)
[17]
  GI50: 3.89 µM (inactive)
[9]
  GI50: 34.2 µM (inactive)
[10]
  GI50: 22.1 µM (inactive)
[18]
  GI50: 2.83 µM (inactive)
[19]
  GI50: 6.98 µM (inactive)
[11]
  GI50: 11.9 µM (inactive)
[20]
  GI50: 4.88 µM (inactive)
[12]
  GI50: 3.91 µM (inactive)
[13]
  GI50: 16.9 µM (inactive)
[14]
  GI50: 3.55 µM (inactive)
[15]
  GI50: 46 µM (inactive)
[16]
  GI50: 15.4 µM (inactive)

## OC(C1CO1)C(O)C1CO1 (stereo unspecified)
[1]
  GI50: 92.3 µM (inactive)
[2]
  GI50: 81.3 µM (inactive)
[3]
  GI50: 8.69 µM (inactive)
[4]
  GI50: 58.9 µM (inactive)
[5]
  GI50: 9.27 µM (inactive)
[6]
  GI50: 3.21 µM (inactive)
[7]
  GI50: > 150 µM (inactive)
[17]
  GI50: 29.9 µM (inactive)
[9]
  GI50: 9.75 µM (inactive)
[18]
  GI50: 39.8 µM (inactive)
[19]
  GI50: 17 µM (inactive)
[20]
  GI50: 11.7 µM (inactive)
[12]
  GI50: 87.9 µM (inactive)
[13]
  GI50: 43.1 µM (inactive)
[14]
  GI50: 46.9 µM (inactive)
[15]
  GI50: 84.9 µM (inactive)

## O=C(Nc1c(Cl)cc([N+](=O)[O-])cc1Cl)C(=O)C(C(=O)c1ccncc1)C1OC(=O)c2ccccc21 (stereo unspecified)
[1]
  GI50: > 100 µM (inactive)
[2]
  GI50: > 100 µM (inactive)
[3]
  GI50: > 100 µM (inactive)
[4]
  GI50: > 100 µM (inactive)
[5]
  GI50: > 100 µM (inactive)
[6]
  GI50: > 100 µM (inactive)
[7]
  GI50: > 100 µM (inactive)
[8]
  GI50: > 100 µM (inactive)
[10]
  GI50: > 100 µM (inactive)
[11]
  GI50: > 100 µM (inactive)
[12]
  GI50: > 100 µM (inactive)
[13]
  GI50: > 100 µM (inactive)
[14]
  GI50: > 100 µM (inactive)
[15]
  GI50: > 100 µM (inactive)
[16]
  GI50: > 100 µM (inactive)

## O=C1N[C@H]2[C@H](O)[C@H](O)[C@@H](O)[C@H](O)[C@@H]2c2cc3c(c(O)c21)OCO3 [PANCRATISTATIN]
[1]
  GI50: 0.0414 µM (active)
[2]
  GI50: 0.0373 µM (active)
[3]
  GI50: 1.58 µM (inactive)
[4]
  GI50: 0.0301 µM (active)
[5]
  GI50: 0.0436 µM (active)
[6]
  GI50: 0.0364 µM (active)
[7]
  GI50: 0.0415 µM (active)
[8]
  GI50: 0.0893 µM (active)
[17]
  GI50: 0.0372 µM (active)
[9]
  GI50: 0.0306 µM (active)
[10]
  GI50: 0.0391 µM (active)
[19]
  GI50: 0.0288 µM (active)
[11]
  GI50: 0.0469 µM (active)
[20]
  GI50: 0.0369 µM (active)
[12]
  GI50: 0.0393 µM (active)
[13]
  GI50: 0.0483 µM (active)
[14]
  GI50: 0.0326 µM (active)
[15]
  GI50: 0.0307 µM (active)
[16]
  GI50: 0.0375 µM (active)
